ChEMBL document CHEMBL1201862, “PubChem BioAssay data set” (2004)
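96-well plates; 48 h exposure; 5 concentrations. Endpoints by linear interpolation between flanking doses. Not reached: highest tested concentration assigned. Here, GI50 denotes the concentration required for 50% inhibition of growth.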 Activity calls are given as the source filed them. Rule as the data show it: active = GI50 up to about 1.1 µM and inactive = higher.

Key:
Experiment in all cases: NCI tumour cell line growth inhibition, 48 h
SK-MEL-5 = system: SK-MEL-5
IGROV-1 = system: IGROV-1
MOLT-4 = system: MOLT-4
CCRF-CEM = system: CCRF-CEM
CAKI-1 = system: CAKI-1
Malme-3M = system: Malme-3M
BT-549 = system: BT-549
OVCAR-4 = system: OVCAR-4
MDA-MB-435 = system: MDA-MB-435
RXF 393 = system: RXF 393
NCI-H522 = system: NCI-H522
SN12C = system: SN12C
PC-3 = system: PC-3
DMS-273 = system: DMS-273
DLD-1 = system: DLD-1
KM-20L2 = system: KM-20L2
M19-MEL = system: M19-MEL
SNB-78 = system: SNB-78
XF498 = system: XF498
DMS-114 = system: DMS-114

| Structure (SMILES) | GI50 (SK-MEL-5) | GI50 (IGROV-1) | GI50 (MOLT-4) | GI50 (CCRF-CEM) | GI50 (CAKI-1) | GI50 (Malme-3M) | GI50 (BT-549) | GI50 (OVCAR-4) | GI50 (MDA-MB-435) | GI50 (RXF 393) | GI50 (NCI-H522) | GI50 (SN12C) | GI50 (PC-3) | GI50 (DMS-273) | GI50 (DLD-1) | GI50 (KM-20L2) | GI50 (M19-MEL) | GI50 (SNB-78) | GI50 (XF498) | GI50 (DMS-114) |
| --- | --- | --- | --- | --- | --- | --- | --- | --- | --- | --- | --- | --- | --- | --- | --- | --- | --- | --- | --- | --- |
| Cc1cccc2sc(-c3ccc(O)cc3)nc12 | 5.81 µM (inactive) | 13.7 µM (inactive) | 43.7 µM (inactive) | 16.9 µM (inactive) | 16.5 µM (inactive) | 16.9 µM (inactive) | 11.8 µM (inactive) | 16 µM (inactive) | 11 µM (inactive) | 16.9 µM (inactive) | 16.3 µM (inactive) | 18.2 µM (inactive) | 17.5 µM (inactive) |  |  |  |  |  |  |  |
| Cc1ccc(NC(=O)CC(=O)n2nc(-c3ccccc3)c(/N=N/c3ccccc3C(=O)O)c2-c2ccccc2)cc1 | > 100 µM (inactive) | > 100 µM (inactive) | 4.4 µM (inactive) |  | > 100 µM (inactive) | > 100 µM (inactive) |  | > 100 µM (inactive) |  | > 100 µM (inactive) | > 100 µM (inactive) | > 100 µM (inactive) |  | > 100 µM (inactive) | 39.3 µM (inactive) | 84.7 µM (inactive) | > 100 µM (inactive) |  |  |  |
| COc1nc(Cl)nc(N[C@H](C)c2c3ccccc3cc3ccccc23)n1 | 5.38 µM (inactive) | 6.75 µM (inactive) | 14.1 µM (inactive) | 10.4 µM (inactive) | 11.6 µM (inactive) |  | 18 µM (inactive) | 3.12 µM (inactive) | 4.31 µM (inactive) | 12.5 µM (inactive) | 7.6 µM (inactive) | 0.879 µM (active) | 14.9 µM (inactive) |  |  |  |  |  |  |  |
| COc1c2ccoc2c(S(=O)(=O)Nc2ccc(Cl)cc2)c2oc(C)cc(=O)c12 | > 79.8 µM (inactive) | > 100 µM (inactive) | > 100 µM (inactive) | > 100 µM (inactive) | > 34.9 µM (inactive) | 96.6 µM (inactive) |  | 32.5 µM (inactive) |  | 25.1 µM (inactive) | 73.6 µM (inactive) | > 83.4 µM (inactive) |  | > 100 µM (inactive) | > 100 µM (inactive) | > 100 µM (inactive) | > 100 µM (inactive) | > 100 µM (inactive) | > 85.1 µM (inactive) | > 68.2 µM (inactive) |
| CCN(CC)CCCNC(=O)c1ccccc1Nc1c(Cl)cccc1Cl | 2.96 µM (inactive) | 17.6 µM (inactive) | 11.8 µM (inactive) | 6.32 µM (inactive) |  |  |  | 7.31 µM (inactive) |  | 8.11 µM (inactive) |  | 14.2 µM (inactive) |  | 17.3 µM (inactive) | 11.6 µM (inactive) | 2.56 µM (inactive) | 3.28 µM (inactive) | 15 µM (inactive) | 2.26 µM (inactive) | 12.2 µM (inactive) |
| O=C1CN2Cc3cc(N4CCOCC4)ccc3N=C2N1 | 27.8 µM (inactive) | 27.5 µM (inactive) | 25 µM (inactive) | 5.43 µM (inactive) | 56.5 µM (inactive) | 89.1 µM (inactive) | > 100 µM (inactive) | 67.9 µM (inactive) | 22.9 µM (inactive) | 73.3 µM (inactive) |  | 63.5 µM (inactive) | 31.4 µM (inactive) |  |  |  |  |  |  |  |
| O=c1cnn(C/C=C/CP(=O)(O)O)c(=O)[nH]1 | > 100 µM (inactive) | > 100 µM (inactive) |  | > 10 µM (inactive) | > 100 µM (inactive) | > 100 µM (inactive) | > 100 µM (inactive) |  | > 100 µM (inactive) | > 100 µM (inactive) | > 100 µM (inactive) | > 100 µM (inactive) | > 100 µM (inactive) |  |  |  |  |  |  |  |
| O=C(Nc1ccc(I)cc1C(=O)NCCO)c1cccs1 | > 100 µM (inactive) | > 100 µM (inactive) | > 100 µM (inactive) | > 100 µM (inactive) | > 100 µM (inactive) |  | > 100 µM (inactive) | > 100 µM (inactive) | > 100 µM (inactive) | > 100 µM (inactive) | > 100 µM (inactive) | > 100 µM (inactive) | > 100 µM (inactive) |  |  |  |  |  |  |  |
| CCOC(=O)C(C)OC(=O)c1ccc(C)cc1 (stereo not drawn) | > 100 µM (inactive) | > 100 µM (inactive) | > 100 µM (inactive) | > 100 µM (inactive) |  | > 100 µM (inactive) |  |  |  | > 100 µM (inactive) | > 100 µM (inactive) | > 100 µM (inactive) |  | > 100 µM (inactive) | > 100 µM (inactive) | > 100 µM (inactive) | > 100 µM (inactive) | > 100 µM (inactive) | 84.3 µM (inactive) | > 100 µM (inactive) |
| COC1=CC(=O)c2c(c(COC(C)=O)cn2C)C1=O | 0.118 µM (active) | 0.184 µM (active) | 0.305 µM (active) | 0.234 µM (active) | 0.0405 µM (active) | 0.0343 µM (active) | 0.0208 µM (active) | 0.257 µM (active) | 0.13 µM (active) | 0.0809 µM (active) | 0.0158 µM (active) | 0.0622 µM (active) | 0.309 µM (active) |  |  |  |  |  |  |  |
| O=C(O)CCCCCCC[C@@H]1S[C@H]1CCCCCCO | > 100 µM (inactive) | > 64.7 µM (inactive) | > 100 µM (inactive) | > 100 µM (inactive) | > 100 µM (inactive) | > 100 µM (inactive) |  | > 100 µM (inactive) |  | > 100 µM (inactive) | > 100 µM (inactive) | > 100 µM (inactive) |  | > 100 µM (inactive) | > 100 µM (inactive) | > 100 µM (inactive) | > 100 µM (inactive) | > 100 µM (inactive) | > 100 µM (inactive) | > 100 µM (inactive) |
| Nc1nc(N)nc(-c2ccccc2NS(=O)(=O)c2ccc([N+](=O)[O-])cc2)n1 | 29 µM (inactive) | > 100 µM (inactive) | > 54.5 µM (inactive) | 27.5 µM (inactive) |  | > 100 µM (inactive) |  | 44.2 µM (inactive) |  | > 52 µM (inactive) | 55.8 µM (inactive) | 97.3 µM (inactive) |  | 55.8 µM (inactive) | 59.6 µM (inactive) | > 100 µM (inactive) | 34.9 µM (inactive) | > 74.1 µM (inactive) | 18.2 µM (inactive) | 25.8 µM (inactive) |
| CS(=O)(=O)c1ccc2nc(-c3ccc(O)cc3)sc2c1 | 17.4 µM (inactive) | 19.2 µM (inactive) | 35.6 µM (inactive) | 25.2 µM (inactive) | 17.6 µM (inactive) | 16.7 µM (inactive) | 16.4 µM (inactive) |  | 18 µM (inactive) | 16.9 µM (inactive) | 13.9 µM (inactive) | 17.5 µM (inactive) | 17.5 µM (inactive) |  |  |  |  |  |  |  |
| COc1ccc2[nH]c(C(=O)N3CC(CCl)c4c3cc(N)c3ccccc43)cc2c1 (stereo not drawn) | < 0.01 µM (active) | < 0.01 µM (active) | < 0.01 µM (active) | < 0.01 µM (active) | < 0.01 µM (active) |  | < 0.0153 µM (active) | < 0.01 µM (active) | 0.0118 µM (active) | < 0.01 µM (active) |  | < 0.01 µM (active) | < 0.01 µM (active) |  |  |  |  |  |  |  |
| COc1ccc2c(=O)c(O)c(-c3ccc(OC)c(OC)c3)oc2c1 | 5.5 µM (inactive) | 7.45 µM (inactive) | 3.22 µM (inactive) | 2.36 µM (inactive) | 3.44 µM (inactive) | 15.1 µM (inactive) |  | 0.191 µM (active) | 4.51 µM (inactive) |  | 3.13 µM (inactive) |  | 9.38 µM (inactive) |  |  |  |  |  |  |  |
| CC(C)CC/N=c1/cc2n(-c3ccc(Cl)cc3)c3ccccc3nc-2cc1Nc1ccc(Cl)cc1 | 12.7 µM (inactive) | 3.13 µM (inactive) | 2.16 µM (inactive) | 3.72 µM (inactive) | 10.4 µM (inactive) | 11.9 µM (inactive) |  | 2.65 µM (inactive) |  | 3.37 µM (inactive) | 2.11 µM (inactive) | 9.27 µM (inactive) |  | 14.6 µM (inactive) | 1.97 µM (inactive) | 1.34 µM (inactive) | 6.89 µM (inactive) | 15.5 µM (inactive) | 6.64 µM (inactive) | 1.94 µM (inactive) |
| O=C(O)CC/C(=N\Nc1nsc2ccccc12)c1ccccc1 | 79.6 µM (inactive) | > 100 µM (inactive) | 23.4 µM (inactive) | 26.6 µM (inactive) |  |  |  | 58.5 µM (inactive) |  | 39.1 µM (inactive) |  | 38.1 µM (inactive) |  | 24.7 µM (inactive) |  | 78.7 µM (inactive) | 72.3 µM (inactive) | 47.8 µM (inactive) |  | 25.5 µM (inactive) |
| COc1ccc2oc3c(ccc[n+]3C)c(=O)c2c1 | > 100 µM (inactive) | > 100 µM (inactive) |  | > 100 µM (inactive) | > 100 µM (inactive) | > 100 µM (inactive) |  | > 100 µM (inactive) | > 100 µM (inactive) | > 100 µM (inactive) | > 100 µM (inactive) | > 100 µM (inactive) | > 100 µM (inactive) |  |  |  |  |  |  |  |
